Experimental data published in patent US10301355B2, “Method of using pharmaceutical compositions comprising selective peptide-based agonists of melanocortin 1 receptor” (University of Cincinnati, priority 2012, dated 2019).
“Also recorded” adds a separate entry of the source.

How the values were obtained:
tyrosinase = test: Stimulation of tyrosinase activity in cultured human melanocytes; format: cell-based; settings: for TA compared to 10 nM αMSH: tyrosinase activity, cultured human melanocytes
Procedure: Peptides were tested on cultured human melanocytes for their capacity for stimulating tyrosinase activity, the rate-limiting enzyme for melanin synthesis. Melanocytes were treated every other day, for a total of 6 days, with increasing concentrations of peptides. Medium containing H^3-tyrosine, the substrate for tyrosinase, was added to melanocytes 24 hours before the end of the 6-day treatment. Tyrosinase activity was measured by determining the amount of ^3H2O generated as […] is catalyzed by tyrosinase for melanin synthesis.
(§1) Peptides were tested as described in Example 4 above on cultured human melanocytes for their capacity to activate MC1R, as measured by stimulating cAMP formation, and for their capacity for stimulating tyrosinase activity, the rate-limiting enzyme for melanin synthesis. The tested peptides were synthesized according to the formula: Ar(CH2)mX^1—X^2—CO—X^3—X^4—X^5-(Trp)n-NX^6R wherein X^1 and X^2 are absent, X^3 is His, X^5 is Arg, and X^6 is H. X^4 amino acids were in the D-stereoisomer form, unless otherwise noted.

hMC3R = target: T1, hMC3R (Homo sapiens, UniProt P41968); test: cAMP stimulation in heterologous cells expressing hMC3R; format: cell-based
T1 construct: expressed in transfected cells
Procedure: (§2) Receptor selectivity of peptide agonists for hMC1R was determined by stimulation of cAMP in heterologous cells expressing different human melanocortin receptors (MC1R, MC3R, MC4R, and MC5R).

hMC4R = target: T2, hMC4R (Homo sapiens, UniProt P32245); test: cAMP stimulation in heterologous cells expressing hMC4R; format: cell-based
T2 construct: expressed in transfected cells
Procedure: as §2

hMC5R = target: T3, hMC5R (Homo sapiens, UniProt P33032); test: cAMP stimulation in heterologous cells expressing hMC5R; format: cell-based
T3 construct: expressed in transfected cells
Procedure: as §2

[1] = test system: UV-irradiated human melanocytes; test: Repair of UV-induced cyclobutane pyrimidine dimers (CPD); format: cell-based
Procedure: To investigate the effects of peptides on the repair of UV-induced DNA damage, levels of cyclobutane pyrimidine dimers (CPD), the major form of DNA photoproducts, were measured in UV-irradiated human melanocytes with or without peptide treatment. Melanocytes were pretreated with the peptides for 4 days prior to, and for 48 hours post UV exposure, harvested, immunostained by a specific antibody for CPD, and analyzed by flow cytometry.

[2] = test system: UV-irradiated human melanocytes; test: Repair of UV-induced 8-oxodG; format: cell-based; settings: 24 hours after UV exposure
Procedure: To investigate the effects of peptides on repair of UV-induced DNA damage, levels of 8-oxodG, a major form of oxidative DNA damage, were measured in UV-irradiated human melanocytes with or without peptide treatment. […] Fluorescence intensity, which correlates with the amount of DNA damage, was quantified using ImagJ software.

MC1R [3] = target: T4, MC1R (Homo sapiens, UniProt Q01726); test: cAMP stimulation in heterologous cells expressing hMC1R; format: cell-based; parameters: expressed in transfected cells; settings: for HMC1R % MAX. ACTIVITY: cAMP, heterologous cells
Procedure: as §2

MC1R [4] = target: T4, MC1R; test: Stimulation of cAMP formation in cultured human melanocytes; format: cell-based; parameters: endogenous in cells; host or cells: cultured human melanocytes; settings: for cAMP compared to 10 nM αMSH: cultured human melanocytes; for potency in stimulating cAMP formation, comparison: human melanocytes, 45 minutes of treatment
Procedure: Peptides were tested on cultured human melanocytes for their capacity to activate MC1R, as measured by stimulating cAMP formation. After 45 minutes of treatment with different concentrations of peptides, cAMP levels were measured using a I^125-labeled radioimmunoassay kit.
as §1

[5] = Peptide storage stability by HPLC; format: physicochemical; settings: lyophilized, open air, room temperature, 4 months
Procedure: LK-513 (Ph(CH2)3CO-His-(D-4-Bip)-Arg-NHMe) was tested for stability and degradation over a storage period. The peptide was stored in a lyophilized form in open air at room temperature for 4 months. After 4 months, HPLC was performed on a test sample of the peptide in order to measure degradation, using standard methods (FIG. 1). […] Without being bound by theory, it is believed that the enhanced stability is a product of the absence of amide bonds between natural L-L-amino acids in the tripeptides and the existence of only one amide bond between natural amino acids in the tetrapeptides (Arg-Trp). Amide bonds between non-natural D- and natural L-amino acids are less prone to chemical and enzymatic hydrolysis, as evidenced by the FIG. 1. Further, the bulk and hydrophobicity of the X4 amino acid (D-Phe or a bulky hydrophobic analog thereof, such as D-4-Bip in the case of LK-513) shield the polar amid bonds of the peptide from chemical and enzymatic degradation.

[6] = human melanocytes, 6 days treatment

T4 sequence (Q01726 whole entry): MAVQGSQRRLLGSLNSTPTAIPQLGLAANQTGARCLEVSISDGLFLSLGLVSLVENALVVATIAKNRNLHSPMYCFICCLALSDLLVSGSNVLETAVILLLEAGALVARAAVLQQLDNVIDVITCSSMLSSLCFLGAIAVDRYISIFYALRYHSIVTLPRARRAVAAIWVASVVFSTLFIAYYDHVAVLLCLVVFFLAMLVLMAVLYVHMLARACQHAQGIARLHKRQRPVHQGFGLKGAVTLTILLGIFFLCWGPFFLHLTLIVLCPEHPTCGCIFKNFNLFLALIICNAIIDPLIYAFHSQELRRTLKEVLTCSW
T2 sequence (P32245 whole entry): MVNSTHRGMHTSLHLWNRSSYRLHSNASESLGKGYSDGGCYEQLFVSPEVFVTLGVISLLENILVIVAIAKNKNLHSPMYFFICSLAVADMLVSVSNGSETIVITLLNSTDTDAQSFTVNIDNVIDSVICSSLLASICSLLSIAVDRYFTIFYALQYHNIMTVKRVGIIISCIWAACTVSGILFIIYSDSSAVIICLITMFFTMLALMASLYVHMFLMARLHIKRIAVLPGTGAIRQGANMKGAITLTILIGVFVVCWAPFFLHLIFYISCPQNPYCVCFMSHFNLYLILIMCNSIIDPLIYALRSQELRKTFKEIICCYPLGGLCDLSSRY
T3 sequence (P33032 whole entry): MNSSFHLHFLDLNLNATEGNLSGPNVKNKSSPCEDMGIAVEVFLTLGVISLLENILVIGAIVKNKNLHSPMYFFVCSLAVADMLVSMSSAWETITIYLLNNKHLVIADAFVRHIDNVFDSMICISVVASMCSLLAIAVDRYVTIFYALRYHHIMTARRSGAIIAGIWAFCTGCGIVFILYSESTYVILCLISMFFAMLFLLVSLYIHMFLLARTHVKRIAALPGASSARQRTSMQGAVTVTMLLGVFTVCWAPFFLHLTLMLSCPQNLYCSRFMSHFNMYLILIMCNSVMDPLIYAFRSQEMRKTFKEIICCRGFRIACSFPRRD
T1 sequence (P41968 whole entry): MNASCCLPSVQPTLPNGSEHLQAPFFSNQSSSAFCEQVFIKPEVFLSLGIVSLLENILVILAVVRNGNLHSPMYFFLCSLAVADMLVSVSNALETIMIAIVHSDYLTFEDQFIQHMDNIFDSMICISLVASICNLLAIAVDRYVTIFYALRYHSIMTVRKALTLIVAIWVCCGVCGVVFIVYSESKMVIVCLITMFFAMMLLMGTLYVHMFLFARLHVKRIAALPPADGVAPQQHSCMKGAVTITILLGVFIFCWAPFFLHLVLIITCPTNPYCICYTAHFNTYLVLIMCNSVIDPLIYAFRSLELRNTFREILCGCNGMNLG

Ph(CH2)3CO-His-(D-1-Nal)-Arg-NHMe [512P]
TA compared to 10 nM αMSH (tyrosinase): NR (NR = No Response/inactive at 10 nM)

N=C(N)NCCC[C@H](NC(=O)[C@@H](Cc1cccc2ccccc12)NC(=O)[C@H](Cc1c[nH]cn1)NC(=O)CCCc1ccccc1)C(=O)N[C@@H](Cc1c[nH]c2ccccc12)C(N)=O [LK-467, Ph(CH2)3CO-His-(D-1-Nal)-Arg-Trp-NH2]
HMC3R % MAX. ACTIVITY (hMC3R; cAMP, heterologous cells): 7% | potency at hMC4R compared with LK-184 (hMC4R): about ten times less potent | HMC4R % MAX. ACTIVITY (hMC4R; cAMP, heterologous cells): 39% | HMC5R % MAX. ACTIVITY (hMC5R; cAMP, heterologous cells): 34% | effect on tyrosinase activity, comparison (tyrosinase; [6]): comparable effects in tyrosinase activity | potency relative to a-MSH in activating MC1R and stimulating melanogenesis (tyrosinase; [6]): at least 100 times | reduction of CPD levels, comparison with LK-184 ([1]; 48 hours after UV exposure): as effective as LK-184 | CPD removal compared with 10 nM α-MSH ([1]; peptide at 1 nM, 48 hours post UV): same effect at 1 nM on CPD removal as 10 nM a-MSH; also recorded: same effect at 1 nM on CPD removal as 10 nM α-MSH | reduction of 8-oxodG levels, comparison with LK-184 [2]: as effective as LK-184 | HMC1R % MAX. ACTIVITY (MC1R [3]): 111% | cAMP compared to 10 nM αMSH (MC1R [4]): > | potency in stimulating cAMP formation, comparison (MC1R [4]): more potent than LK-184

Ph(CH2)3CO-His-(D-2-Thi)-Arg-Trp-NH2 [476P]
cAMP compared to 10 nM αMSH (MC1R [4]): >

Ph(CH2)3CO-His-(D-1-Nal)-Arg-NH2 [510P]
TA compared to 10 nM αMSH (tyrosinase): NR (NR = No Response/inactive at 10 nM)

Ph(CH2)3CO-His-(D-3-NO2Phe)-Arg-Trp-NH2 [472P]
cAMP compared to 10 nM αMSH (MC1R [4]): <

4-BrC6H4CH2CO-His-(D-4-FPhe)-Arg-Trp-NH2 [208P]
cAMP compared to 10 nM αMSH (MC1R [4]): >

Ph(CH2)3CO-His-(D-2-Nal)-Arg-NHEt [492P]
cAMP compared to 10 nM αMSH (MC1R [4]): NR (NR = No Response/inactive at 10 nM)

CNC(=O)[C@H](CCCNC(=N)N)NC(=O)[C@@H](Cc1ccc(-c2ccccc2)cc1)NC(=O)[C@H](Cc1c[nH]cn1)NC(=O)CCCc1ccccc1 [LK-513, Ph(CH2)3CO-His-(D-4-Bip)-Arg-NHMe]
binding of MC3R (hMC3R): do not bind | binding of MC4R (hMC4R): do not bind | binding of MC5R (hMC5R): do not bind | stability and degradation on storage (HPLC) [5]: highly stable and resistant to degradation, showing only a single HPLC peak; also recorded: highly stable and substantially free of degradation | concentration at which significant stimulation of tyrosinase activity begins (tyrosinase; [6]): 1 nM | TA compared to 10 nM αMSH (tyrosinase): < | potency in activation of MC1R compared with MT-II (MC1R [3]): about as potent as MT-II | HMC1R % MAX. ACTIVITY (MC1R [3]): 95% | cAMP compared to 10 nM αMSH (MC1R [4]): < | potency in stimulating cAMP formation, comparison (MC1R [4]): about ten times less potent than a-MSH; also recorded: about ten times less potent than α-MSH

4-FC6H4CH2CO-His-(D-4-Bip)-Arg-NHEt [497P]
cAMP compared to 10 nM αMSH (MC1R [4]): NR (NR = No Response/inactive at 10 nM)

Ph(CH2)3CO-His-(D-4-tBuPhe)-Arg-NHEt [494P]
cAMP compared to 10 nM αMSH (MC1R [4]): <<

Ph(CH2)3CO-His-(D-4-Bip)-Arg-NHEt [493P]
cAMP compared to 10 nM αMSH (MC1R [4]): <<

Ph(CH2)3CO-His-(D-4-BrPhe)-Arg-Trp-NH2 [474P]
cAMP compared to 10 nM αMSH (MC1R [4]): =; <; >

4-IC6H4CH2CO-His-(D-Phe)-Arg-Trp-NH2 [488P]
cAMP compared to 10 nM αMSH (MC1R [4]): >>

Ph(CH2)3CO-His-(D-2-Nal)-Arg-Trp-NH2 [468P]
cAMP compared to 10 nM αMSH (MC1R [4]): ≤

4-FC6H4CH2CO-His-(D-1-Nal)-Arg-NHEt [495P]
cAMP compared to 10 nM αMSH (MC1R [4]): NR (NR = No Response/inactive at 10 nM)

Ph(CH2)3CO-His-(D-4-NO2Phe)-Arg-Trp-NH2 [471P]
cAMP compared to 10 nM αMSH (MC1R [4]): =
